Assay results taken from article PMC7481839, “Switchable foldamer ion channels with antibacterial activity” (Chemical Science, 2020).
Where a SMILES comes first, the peptide text is derived from it.

Assay: Lucigenin assay of Cl− transport in vesicles
Format: biochemical
Conditions: 10 µM compound, interior NaNO3 200 mM, exterior NaCl (2 M), 0.762 mM lipid, 25°C, first-order curve fit
Description: To confirm that chloride could pass through the bilayers, lucigenin assays[5a] were performed for 2, Cu(II)[1]Cl2 and Cu(II)[2]Cl2 (Fig. 5 and ESI, Fig. S10 ^†). The same lipids were used as for the HPTS assays and lucigenin was encapsulated with NaNO3 in the vesicles.
Figure S9: Ionophoric activity determined through an HPTS assay in the presence of NaCl (100 mM) for: 2 (10 µM) in the absence (pink inverted triangles) and presence of FCCP (20 µM, blue triangles) and Cu(II)[2]Cl2 (6 µM) in the absence (red circles) and presence of FCCP (20 µM, black squares). Base pulse at 1 min, TX-100 added at 7 min.
5.4 Preparation of large unilamellar vesicles for lucigenin assays […]
Lucigenin assays procedure and fluorescence normalisation were developed by a modification of published methods.10 An aliquot of the vesicle stock solution (100 μL) w as diluted to 1.9 mL with 200 mM NaNO 3 in water (pH = 7.4) (final lipid co ncentration in cuvette 0.762 mM). […] The cuvette was then placed into a Varian Cary Eclipse fluorescence spectrophotometer in the moderate stirring mode. The fluorescence emission at 505 nm was observed, resulting from excitation at 455 nm, over a period of seven minutes (420 seconds) at 25°C. […] The change in fluorescence was followed for six minutes before final lysis of the vesicles at seven minutes (420 s) by adding an aliquot of a 10 % v/v solution of Triton X-100 […]

## CC(C)(NC(=O)C(C)(C)NC(=O)C(C)(C)NC(=O)C(C)(C)NC(=O)C(C)(C)n1cc(CN(Cc2ccccn2)Cc2ccccn2)nn1)C(=O)NC(C)(C)C(=O)NC(C)(C)C(=O)NC(C)(C)C(=O)OCC[Si](C)(C)C [foldamer 2] (HELM PEPTIDE1{[CC(C)(C(=O)[*:2])n1cc(CN(Cc2ccccn2)Cc2ccccn2)nn1].[Aib].[Aib].[Aib].[Aib].[Aib].[Aib].[Aib].[C[Si](C)(C)CCO[*:1]]}$$$$V2.0)
  kobs of Cl− transport (lucigenin assay): 0.0052 s⁻¹
